From the supplement of paper PMC10307832

Experiments:
Test in all cases: relative viability (nuclei count vs DMSO), 5 days (fraction); higher = more cells survive
Irinotecan + OSI-027 = compound: CCc1c2c(nc3ccc(OC(=O)N4CCC(N5CCCCC5)CC4)cc13)-c1cc3c(c(=O)n1C2)COC(=O)[C@]3(O)CC [Irinotecan] + COc1cccc2cc(-c3nc([C@H]4CC[C@H](C(=O)O)CC4)n4ncnc(N)c34)[nH]c12 [OSI-027] (partner 0.5 µM)
How it was run: (§1)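 Lung cancer cell lines were pin-tool dosed in 1536-well plates on the day after seeding, with either a lone drug or a fixed anchor-drug dose plus five library-drug doses (not always all listed) in √10 steps. Nuclei were counted on 4× images after 5 days. Relative viability is the ratio of treated-well to vehicle-well nuclei counts, with each value a median of duplicate plates.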

MK-8033 + Palbociclib = compound: Cn1cc(-c2cnc3ccc4ccc(CS(=O)(=O)NCc5ccccn5)cc4c(=O)c3c2)cn1 [MK-8033] + CC(=O)c1c(C)c2cnc(Nc3ccc(N4CCNCC4)cn3)nc2n(C2CCCC2)c1=O [Palbociclib] (partner 0.5 µM)
How it was run: as §1

MK-8033 + Foretinib = compound: Cn1cc(-c2cnc3ccc4ccc(CS(=O)(=O)NCc5ccccn5)cc4c(=O)c3c2)cn1 [MK-8033] + COc1cc2c(Oc3ccc(NC(=O)C4(C(=O)Nc5ccc(F)cc5)CC4)cc3F)ccnc2cc1OCCCN1CCOCC1 [Foretinib] (partner 0.25 µM)
How it was run: as §1

MK-8033 + Pictilisib = compound: Cn1cc(-c2cnc3ccc4ccc(CS(=O)(=O)NCc5ccccn5)cc4c(=O)c3c2)cn1 [MK-8033] + CS(=O)(=O)N1CCN(Cc2cc3nc(-c4cccc5[nH]ncc45)nc(N4CCOCC4)c3s2)CC1 [Pictilisib] (partner 1 µM)
How it was run: as §1

Cell Line | relative viability (Irinotecan + OSI-027; first compound 2 µM) | relative viability (Irinotecan + OSI-027; first compound 6.325 µM) | relative viability (Irinotecan + OSI-027; first compound 20 µM) | relative viability (MK-8033 + Palbociclib; first compound 0.02 µM) | relative viability (MK-8033 + Palbociclib; first compound 0.06325 µM) | relative viability (MK-8033 + Palbociclib; first compound 0.2 µM) | relative viability (MK-8033 + Palbociclib; first compound 0.6325 µM) | relative viability (MK-8033 + Palbociclib; first compound 2 µM) | relative viability (MK-8033 + Foretinib; first compound 0.02 µM) | relative viability (MK-8033 + Foretinib; first compound 0.06325 µM) | relative viability (MK-8033 + Foretinib; first compound 0.2 µM) | relative viability (MK-8033 + Foretinib; first compound 0.6325 µM) | relative viability (MK-8033 + Foretinib; first compound 2 µM) | relative viability (MK-8033 + Pictilisib; first compound 0.02 µM) | relative viability (MK-8033 + Pictilisib; first compound 0.06325 µM) | relative viability (MK-8033 + Pictilisib; first compound 0.2 µM) | relative viability (MK-8033 + Pictilisib; first compound 0.6325 µM) | relative viability (MK-8033 + Pictilisib; first compound 2 µM) | relative viability (Irinotecan + OSI-027; first compound 0.6325 µM)
NCI-H1734 | 0.509 | 0.225 | 0.165 | 0.349 | 0.309 | 0.342 | 0.331 | 0.371 | 0.829 | 0.665 | 0.78 | 0.861 | 0.856 | 0.48 | 0.37 | 0.466 | 0.469 | 0.45 | –
NCI-H1755 | 0.652 | 0.381 | 0.42 | 0.452 | 0.452 | 0.413 | 0.464 | 0.417 | 0.961 | 0.884 | 0.865 | 0.889 | 0.949 | 0.413 | 0.399 | 0.368 | 0.405 | 0.481 | 0.378
NCI-H1793 | 0.251 | 0.255 | 0.198 | 0.263 | – | 0.274 | 0.288 | 0.291 | 0.696 | 0.515 | 0.615 | 0.574 | 0.784 | 0.32 | – | 0.286 | 0.307 | 0.258 | –
NCI-H1915 | 0.295 | 0.216 | 0.346 | 0.538 | 0.525 | 0.496 | 0.492 | 0.483 | 1.08 | 0.997 | 1.05 | 1.07 | 1.11 | 0.969 | 0.785 | 0.914 | 1 | 0.861 | 0.303
NCI-H1944 | 0.349 | 0.165 | 0.161 | 0.306 | 0.316 | 0.348 | 0.324 | 0.327 | 0.88 | 0.773 | 0.852 | 0.962 | 0.927 | 0.35 | – | 0.347 | 0.346 | 0.34 | 0.22
NCI-H1975 | 0.694 | 0.439 | 0.137 | 0.579 | 0.469 | 0.51 | 0.339 | 0.602 | 0.944 | 0.944 | 0.875 | – | 1 | 0.302 | 0.266 | 0.269 | 0.307 | 0.315 | 0.558
NCI-H1993 | 0.491 | 0.574 | 0.587 | 0.563 | 0.566 | 0.453 | 0.649 | 0.424 | 0.696 | 0.774 | 0.789 | 0.73 | 0.949 | 0.842 | 0.75 | 0.669 | 1 | 0.763 | 0.584
NCI-H2009 | 0.508 | 0.314 | 0.124 | 0.251 | 0.23 | 0.249 | 0.214 | 0.304 | 1.25 | 1.25 | 1.19 | 1.24 | 1.14 | 0.833 | 0.716 | 0.732 | 0.775 | 0.771 | 0.491
NCI-H2023 | 0.377 | 0.238 | 0.0537 | 0.39 | 0.279 | 0.236 | 0.214 | 0.174 | 0.822 | 0.786 | 0.701 | 0.948 | 0.771 | 0.264 | 0.194 | 0.186 | 0.219 | 0.179 | 0.319
NCI-H2085 | 0.71 | 0.568 | 0.495 | 0.468 | 0.479 | 0.499 | 0.484 | 0.474 | 0.914 | 0.75 | 1.23 | 0.919 | 0.951 | 0.417 | 0.369 | 0.532 | 0.57 | 0.395 | 0.435
NCI-H2087 | 0.339 | 0.157 | 0.166 | 0.193 | 0.21 | 0.248 | 0.26 | 0.235 | 1.03 | 1.11 | 0.889 | 1.16 | 0.957 | 0.912 | 0.814 | 0.737 | 0.994 | 0.692 | 0.239
NCI-H2126 | 0.601 | 0.457 | 0.427 | 0.336 | 0.37 | 0.346 | 0.353 | 0.311 | 1.13 | 0.998 | 1.16 | 1.18 | 1.15 | 0.491 | 0.393 | 0.455 | 0.515 | 0.491 | –
NCI-H2170 | 0.767 | 0.255 | 0.174 | 0.392 | 0.345 | 0.372 | 0.388 | 0.391 | 1.03 | 0.966 | 0.959 | 1.06 | 1.09 | 0.382 | 0.291 | 0.293 | 0.32 | 0.302 | 0.546
NCI-H2228 | 0.472 | 0.288 | 0.342 | 0.815 | 0.729 | 0.807 | 0.621 | 0.82 | 0.96 | 0.806 | 0.673 | 0.721 | 0.749 | 0.397 | 0.599 | 0.356 | 0.336 | 0.357 | 0.341
NCI-H2347 | 0.375 | 0.337 | 0.386 | 0.368 | 0.408 | 0.428 | 0.441 | 0.464 | 1.21 | 1.01 | 0.805 | 0.839 | 0.939 | 0.685 | 0.438 | 0.597 | 0.771 | 0.603 | 0.27
NCI-H2405 | 0.596 | 0.382 | 0.289 | 0.515 | 0.505 | 0.512 | 0.514 | 0.555 | 1.01 | 1.02 | 0.988 | 1.09 | 1.04 | 0.502 | 0.445 | 0.404 | 0.434 | 0.593 | –
NCI-H3122 | 0.649 | 0.22 | 0.0566 | 0.155 | 0.173 | 0.19 | 0.191 | 0.223 | 0.962 | 0.958 | 0.93 | 0.908 | 0.974 | 0.676 | 0.563 | 0.602 | 0.66 | 0.628 | 1.04
